From ChEMBL document CHEMBL1201862, “PubChem BioAssay data set” (2004) come the findings set out here.

The structures appear in SMILES notation.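 How tested: cells in 96-well plates exposed to compound for 48 hours at five concentrations. The concentration for 50% growth inhibition is given as GI50.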 The source made the active and inactive calls. Rule as the data show it: active = GI50 up to about 1.1 µM and inactive = higher. Residues, ends and D or L forms follow the SMILES beside them.

Test systems include A498; ACHN; BT-549; CAKI-1; DU-145; EKVX; HCC 2998; HOP-62; IGROV-1; MDA-N; NCI-H23; NCI/ADR-RES; OVCAR-3; OVCAR-8; RXF 393; SF-295; SNB-19; SNB-75; NCI-H522.
What all share (test): NCI tumour cell line growth inhibition, 48 h

For the compound `CC1=CC[C@H](C[C@H](C#CCCCC2OCCO2)O[Si](C(C)C)(C(C)C)C(C)C)C(=O)CC1`, the GI50 in the assay on A498, with ACHN, in the assay on BT-549, in the assay on CAKI-1, in the assay on DU-145 and with EKVX was > 100 µM (inactive) in each case. Moreover, the GI50 with HCC 2998, with HOP-62, with IGROV-1, with MDA-N, in the assay on NCI-H23 and with NCI/ADR-RES was > 100 µM (inactive) throughout. In addition, the GI50 in the assay on OVCAR-3, in the assay with OVCAR-8, in the assay on RXF 393, in the assay with SF-295, with SNB-19 and in the assay on SNB-75 was > 100 µM (inactive) throughout.
With `Cc1nc(N)c(N2CCN(S(=O)(=O)N(Cc3ccccc3)Cc3ccccc3)CC2)c(O)n1`, the GI50 in the assay on A498 was > 10 µM (inactive); in the assay on ACHN it was 18.2 µM (inactive); with BT-549, 48.9 µM (inactive); in the assay on DU-145, 20.7 µM (inactive); in the assay with EKVX, 58.6 µM (inactive); in the assay on HCC 2998, 87.3 µM (inactive). The GI50 in the assay with HOP-62 was 31.6 µM (inactive); in the assay with MDA-N it was 85.1 µM (inactive); in the assay with NCI-H23, 21.9 µM (inactive); in the assay on NCI-H522, > 10 µM (inactive); in the assay on NCI/ADR-RES, 71.3 µM (inactive); in the assay on OVCAR-3, 20.6 µM (inactive). Further, the GI50 in the assay on OVCAR-8 is 35.2 µM (inactive); in the assay with SF-295 it was 26.4 µM (inactive); in the assay on SNB-19 it was 25 µM (inactive); in the assay on SNB-75 it was 10.9 µM (inactive).
Regarding `C=C1NC(=O)C(CC(C(=O)C(=O)Nc2c(C)cccc2C(C)(C)C)C(=O)c2ccc3ccccc3c2)C(=O)N1` (stereo not given), the GI50 in the assay with A498, in the assay with ACHN, in the assay on BT-549, with CAKI-1, in the assay on DU-145 and in the assay with HCC 2998 was > 100 µM (inactive) each time. The GI50 with MDA-N, in the assay on NCI-H23, with NCI/ADR-RES, with OVCAR-3, with OVCAR-8 and in the assay with RXF 393 was > 100 µM (inactive) in each case. Besides, the GI50 with SF-295, with SNB-19 and with SNB-75 was > 100 µM (inactive) each time.
In the case of `CC1(C)N=C(N)N=C(N)N1c1cccc(OCc2cccc([N+](=O)[O-])c2)c1`, the GI50 with A498 was 99.5 µM (inactive); in the assay on ACHN, > 100 µM (inactive); in the assay with BT-549, > 53.1 µM (inactive); in the assay on CAKI-1, > 100 µM (inactive); in the assay with DU-145 it was > 38.5 µM (inactive); in the assay with EKVX, > 78.3 µM (inactive). In addition, the GI50 is > 76 µM (inactive) with HOP-62; 7.87 µM (inactive) in the assay on IGROV-1; 3.29 µM (inactive) in the assay with MDA-N; 7.26 µM (inactive) in the assay with NCI-H23; 8.91 µM (inactive) in the assay on NCI-H522; > 100 µM (inactive) in the assay with NCI/ADR-RES. In addition, the GI50 in the assay on OVCAR-3 was 22.9 µM (inactive); with OVCAR-8 it was 99.8 µM (inactive); in the assay on RXF 393 it was > 100 µM (inactive); in the assay on SF-295, > 55.7 µM (inactive); with SNB-19, 11.5 µM (inactive); with SNB-75 it was > 57 µM (inactive).
With `C(=N\c1cnc2ccccc2c1)/c1ccc2ccccc2n1`, the GI50 in the assay on A498, in the assay on ACHN, in the assay with BT-549, in the assay with CAKI-1, in the assay with DU-145 and in the assay on EKVX was > 100 µM (inactive) throughout. The GI50 in the assay on HOP-62, with IGROV-1, with MDA-N, with NCI-H23, with NCI-H522 and in the assay on NCI/ADR-RES was > 100 µM (inactive) each time. In addition, the GI50 is 27.7 µM (inactive) in the assay with OVCAR-3; > 100 µM (inactive) in the assay on OVCAR-8; > 100 µM (inactive) with RXF 393; > 100 µM (inactive) with SF-295; > 100 µM (inactive) in the assay on SNB-19; > 100 µM (inactive) in the assay with SNB-75.
`O=c1[nH]c(=O)n(COCc2ccccc2)cc1Nc1ccc(Br)cc1`: the GI50 in the assay with A498, in the assay with ACHN, in the assay on BT-549, in the assay with CAKI-1, with DU-145 and in the assay on EKVX was > 100 µM (inactive) in each case. In addition, the GI50 with HCC 2998 was > 100 µM (inactive); with HOP-62, 17.1 µM (inactive); in the assay with IGROV-1, 0.51 µM (active); in the assay on MDA-N, > 100 µM (inactive); with NCI-H23, > 100 µM (inactive); in the assay with NCI/ADR-RES, > 100 µM (inactive). The GI50 in the assay on OVCAR-3 was > 100 µM (inactive); with RXF 393, 43.2 µM (inactive); in the assay on SF-295, 44.5 µM (inactive); with SNB-19, > 100 µM (inactive).
As to `Nc1nc(NNc2ccc(Cl)c(Cl)c2)cc(=O)[nH]1`, the GI50 was > 100 µM (inactive) in the assay with A498; 35.6 µM (inactive) in the assay with ACHN; 33.7 µM (inactive) in the assay on BT-549; 35.8 µM (inactive) in the assay with DU-145; 39.2 µM (inactive) with EKVX; 19.8 µM (inactive) in the assay with HCC 2998. Further, the GI50 in the assay with HOP-62 is 70.8 µM (inactive); in the assay with IGROV-1, 28.4 µM (inactive); with MDA-N, 35.5 µM (inactive); with NCI-H23, 34 µM (inactive); in the assay with NCI/ADR-RES it was 47.5 µM (inactive); in the assay on OVCAR-3 it was 23 µM (inactive). Also, the GI50 in the assay on OVCAR-8 was 44.9 µM (inactive); in the assay with RXF 393, 25.5 µM (inactive); in the assay on SF-295 it was 54.1 µM (inactive); in the assay on SNB-19 it was 72.6 µM (inactive).
In the case of `C=CCOC(=O)CCCCCCCCCCCCCCCOC(=O)C1=C(CCC[C@@H](C)O[Si](C)(C)C(C)(C)C)NC(=O)N2[C@H](CC3(CC/C=C\[C@H](CC)O[Si](C(C)C)(C(C)C)C(C)C)OCCO3)CC[C@H]12`, the GI50 in the assay on A498, in the assay with ACHN, with BT-549, in the assay on CAKI-1, with DU-145 and in the assay on EKVX was > 100 µM (inactive) each time. Besides, the GI50 with HCC 2998, with HOP-62, with MDA-N, with NCI-H23, with NCI-H522 and in the assay on NCI/ADR-RES was > 100 µM (inactive) each time. Besides, the GI50 with OVCAR-3, in the assay on SF-295, in the assay with SNB-19 and with SNB-75 was > 100 µM (inactive) in each case.
In the case of `CCC(C)C(NC(=O)C(CC(C)C)NC(=O)CNC(=O)C(NC(=O)C1CCCN1C(=O)C(CC(C)C)NC(=O)C(N)Cc1ccccc1)C(C)CC)C(=O)NC(CC(C)C)C(N)=O` (stereo not given) (H-FLPIGLIL-NH2; configuration not given here), the GI50 in the assay with A498, in the assay with ACHN, in the assay on BT-549, in the assay on CAKI-1, in the assay with DU-145 and in the assay with EKVX was > 75 µM (inactive) each time. Moreover, the GI50 in the assay with HOP-62, with IGROV-1, in the assay with MDA-N, in the assay on NCI-H23, in the assay with NCI-H522 and in the assay on NCI/ADR-RES was > 75 µM (inactive) in each case. Moreover, the GI50 in the assay with OVCAR-3, in the assay on OVCAR-8, in the assay with SF-295 and in the assay on SNB-19 was > 75 µM (inactive) each time.
For the compound `CCOC(=O)c1cc(Sc2ccc(N)c(C(=O)OCC)c2)ccc1N`, the GI50 in the assay on A498 was 21.6 µM (inactive); in the assay with ACHN, 10.4 µM (inactive); in the assay with BT-549, > 100 µM (inactive); in the assay with CAKI-1, 7.69 µM (inactive); in the assay on DU-145, > 100 µM (inactive); in the assay on EKVX, 13.5 µM (inactive). Moreover, the GI50 in the assay on HOP-62 was 14.8 µM (inactive); in the assay on IGROV-1, 18.6 µM (inactive); in the assay on MDA-N, 5.43 µM (inactive); with NCI-H23, 25.3 µM (inactive); in the assay with NCI-H522, 4.38 µM (inactive); with NCI/ADR-RES, 5.25 µM (inactive). Moreover, the GI50 in the assay with OVCAR-3 was 24.8 µM (inactive); in the assay on OVCAR-8 it was 20.7 µM (inactive); with RXF 393, 11.5 µM (inactive); in the assay on SF-295, 3.3 µM (inactive); with SNB-19, > 100 µM (inactive); with SNB-75 it was 12.3 µM (inactive).
Consider `O=c1[nH][nH]c(=O)n1Cc1ccccc1Cn1c(=O)[nH][nH]c1=O`, for which the GI50 in the assay with A498, in the assay on ACHN, in the assay with BT-549, in the assay on CAKI-1, in the assay with DU-145 and with EKVX was > 100 µM (inactive) each time. Besides, the GI50 with HOP-62, with IGROV-1, in the assay on MDA-N, with NCI-H23, with NCI-H522 and in the assay with NCI/ADR-RES was > 100 µM (inactive) each time. Further, the GI50 in the assay on OVCAR-3, with OVCAR-8, in the assay on RXF 393, with SF-295, with SNB-19 and with SNB-75 was > 100 µM (inactive) each time.
